Results from US20240415819A1, “MACROCYCLIC COMPOUNDS AS PROTEASOME SUBUNIT BETA TYPE-5 INHIBITORS” (Lead Discovery Center GmbH, priority 2021, published 2024).

How the values were obtained:
[1] = biological target: T1, β5 subunit of the human constitutive proteasome (CPS) (Homo sapiens, UniProt P28074); assay: β5 inhibition assay, human constitutive proteasome (Suc-LLVY-AMC); format: biochemical; settings: IC50 class, Suc-LLVY-AMC substrate
T1 construct: purchased Boston Biochem E-360
Experimental: The enzymatic activity of the β5 subunit of the human constitutive proteasome (CPS) is analyzed. In another assay, which differs from the assay of the human constitutive proteasome only in using the human immunoproteasome (IPS) the enzymatic activity of the β5 subunit of the human immunoproteasome (IPS) is analyzed. […] Inhibition is indicated as IC50 [nM] (“-”=not measured).

[2] = biological target: T2, β5 subunit of the human immunoproteasome (IPS) (Homo sapiens, UniProt P28062); assay: β5 inhibition assay, human immunoproteasome (Suc-LLVY-AMC); format: biochemical; settings: IC50 class, Suc-LLVY-AMC substrate
T2 construct: purchased Boston Biochem E-370
Method in brief: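 Human immunoproteasome (1 nM final) was preincubated 10 min at RT with compound in 100 mM HEPES pH 7.5, 50 mM NaCl, 0.02% SDS, 1 mM DTT. Suc-LLVY-AMC (22.6 μM final) was then added for 4 h at RT in the dark. After stopping with 1 μM bortezomib, AMC fluorescence was read (ex 355/em 460 nm).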

[3] = system: A549 (human lung carcinoma cell line); assay: Glo assay of A549 cells (Table 3; ProteasomeGlo plating scheme); format: cell-based; settings: Homo sapiens; A549 cells; read-out: PGLo A549
Method in brief: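 Cells plated in 384 wells; compound, DMSO, staurosporine transferred by ECHO; 105 min, 37° C., 5% CO2; Proteasome-Glo (Suc-LLVY-Glo) reagent added; dark 10-15 min; luminescence; IC50 nM.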

[4] = system: Hs 746T (human gastric carcinoma cell line); assay: 48 hr CTG viability assay, Hs 746T; format: cell-based; settings: Hs746T, 48 hr CTG, read-out: Hs 746T IC50
Method in brief: (§1)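 Growth inhibition by compound over 48 h; IC50 (nM) derived from duplicate CellTiter-Glo luminescence readings across 0.0015–10 uM.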

[5] = system: MM1 S (B lymphoblast cell line); assay: 48 hr CTG viability assay, MM1S; format: cell-based; settings: Homo sapiens, 48 hr CTG, read-out: MM1S IC50
Method in brief: as §1

[6] = system: RPMI 8226 (B lymphocyte cell line, multiple myeloma); assay: 48 hr CTG viability assay, RPMI 8226; format: cell-based; settings: Homo sapiens, RPMI-8226; 48 hr CTG; read-out: RPMI-8226 IC50
Method in brief: as §1

| SMILES | IC50 [1] | IC50 [2] | IC50 [3] | IC50 [4] | IC50 [5] | IC50 [6] |
| --- | --- | --- | --- | --- | --- | --- |
| COCCOCCC(=O)N[C@H]1CC(=O)N2CCCC(CCOc3ccc(C)c(c3)CNC(=O)[C@H](CCc3ccccc3)NC1=O)C2 (stereo partly drawn) [Compound 596, 3-(2-methoxyethoxy)-N-((9S,12S)-5^4-methyl-8,11,14-trioxo-9-phenethyl-4-oxa-7,10-diaza-1(3,1)-piperidina-5(1,3)-benzenacyclotetradecaphane-12-yl)propanamide] | < 100 nM | < 100 nM | < 100 nM | < 100 nM | < 100 nM | < 100 nM |
| Cc1ccc2cc1CNC(=O)[C@H](CCc1ccccc1)NC(=O)[C@@H](NC(=O)CCOCCC1CCC1)CC(=O)N1CCCC(CCO2)C1 (stereo partly drawn) [Compound 627, 3-(2-cyclobutylethoxy)-N-((9S,12S)-5^4-methyl-8,11,14-trioxo-9-phenethyl-4-oxa-7,10-diaza-1(3,1)-piperidina-5(1,3)-benzenacyclotetradecaphane-12-yl)propanamide] | < 100 nM | < 100 nM | < 100 nM | < 100 nM | < 100 nM | < 100 nM |
| Cc1ccc2cc1CNC(=O)[C@H](CCc1ccccc1)NC(=O)[C@@H](NC1CCC1)CC(=O)N1CCCC(CCO2)C1 (stereo partly drawn) [Compound 717, (9S,12S)-12-(cyclobutylamino)-5^4-methyl-9-phenethyl-4-oxa-7,10-diaza-1(3,1)-piperidina-5(1,3)-benzenacyclotetradecaphane-8,11,14-trione] | < 100 nM | < 100 nM | < 100 nM | 100 to 500 nM | 100 to 500 nM | 100 to 500 nM |
| Cc1ccc2cc1CNC(=O)[C@H](CCc1ccccc1)NC(=O)[C@@H](NC(=O)N1CCCc3cc(N)ccc31)CC(=O)N1CCCC(CCO2)C1 (stereo partly drawn) [Compound 667, 6-amino-N-((9S,12S)-5^4-methyl-8,11,14-trioxo-9-phenethyl-4-oxa-7,10-diaza-1(3,1)-piperidina-5(1,3)-benzenacyclotetradecaphane-12-yl)-3,4-dihydroquinoline-1(2H)-carboxamide] | < 100 nM | < 100 nM | < 100 nM | < 100 nM | < 100 nM | < 100 nM |
| Cc1ccc2cc1CNC(=O)[C@H](CCc1ccccc1)NC(=O)[C@@H](NC(=O)CCN1CCCC1)CC(=O)N1CCCC(CCO2)C1 (stereo partly drawn) [Compound 668, N-((9S,12S)-5^4-methyl-8,11,14-trioxo-9-phenethyl-4-oxa-7,10-diaza-1(3,1)-piperidina-5(1,3)-benzenacyclotetradecaphane-12-yl)-3-(pyrrolidin-1-yl)propanamide] | < 100 nM | < 100 nM | < 100 nM | < 100 nM | < 100 nM | < 100 nM |
| Cc1ccc2cc1CNC(=O)[C@H](CCc1ccccc1)NC(=O)[C@@H](NCC(C)(C)N)CC(=O)N1CCCC(CCO2)C1 (stereo partly drawn) [Compound 727, (9S,12S)-12-((2-amino-2-methylpropyl)amino)-5^4-methyl-9-phenethyl-4-oxa-7,10-diaza-1(3,1)-piperidina-5(1,3)-benzenacyclotetradecaphane-8,11,14-trione] | < 100 nM | < 100 nM | 100 to 500 nM | 1000 to 5000 nM | 500 to 1000 nM | 100 to 500 nM |
| Cc1ccc2cc1CNC(=O)[C@H](CCc1ccccc1)NC(=O)[C@@H](NC(=O)CCN1CCC3(CCOC3)CC1)CC(=O)N1CCCC(CCO2)C1 (stereo partly drawn) [Compound 621, N-((9S,12S)-5^4-methyl-8,11,14-trioxo-9-phenethyl-4-oxa-7,10-diaza-1(3,1)-piperidina-5(1,3)-benzenacyclotetradecaphane-12-yl)-3-(2-oxa-8-azaspiro[4.5]decan-8-yl)propanamide] | < 100 nM | < 100 nM | < 100 nM | < 100 nM | < 100 nM | < 100 nM |
| Cc1ccc2cc1CNC(=O)[C@H](CCc1ccccc1)NC(=O)[C@@H](NC(=O)CCNCc1ccccc1)CC(=O)N1CCCC(CCO2)C1 (stereo partly drawn) [Compound 647, 3-(benzylamino)-N-((9S,12S)-5^4-methyl-8,11,14-trioxo-9-phenethyl-4-oxa-7,10-diaza-1(3,1)-piperidina-5(1,3)-benzenacyclotetradecaphane-12-yl)propanamide] | < 100 nM | < 100 nM | < 100 nM | < 100 nM | < 100 nM | < 100 nM |

Next, values leading:

| IC50 [1] | IC50 [2] | IC50 [3] | IC50 [4] | IC50 [5] | IC50 [6] | SMILES |
| --- | --- | --- | --- | --- | --- | --- |
| < 100 nM | < 100 nM | < 100 nM | 100 to 500 nM | < 100 nM | < 100 nM | Cc1ccc2cc1CNC(=O)[C@H](CCc1ccccc1)NC(=O)[C@@H](NC(=O)N1CCNCC1)CC(=O)N1CCCC(CCO2)C1 (stereo partly drawn) [Compound 716, N-((9S,12S)-5^4-methyl-8,11,14-trioxo-9-phenethyl-4-oxa-7,10-diaza-1(3,1)-piperidina-5(1,3)-benzenacyclotetradecaphane-12-yl)piperazine-1-carboxamide] |
| < 100 nM | < 100 nM | < 100 nM | < 100 nM | < 100 nM | < 100 nM | Cc1ccc2cc1CNC(=O)[C@H](CCc1ccccc1)NC(=O)[C@@H](NC(=O)CCNC(=O)c1ccc(C3CCCCC3)cc1)CC(=O)N1CCCC(CCO2)C1 (stereo partly drawn) [Compound 656, 4-cyclohexyl-N-(3-(((9S,12S)-5^4-methyl-8,11,14-trioxo-9-phenethyl-4-oxa-7,10-diaza-1(3,1)-piperidina-5(1,3)-benzenacyclotetradecaphane-12-yl)amino)-3-oxopropyl)benzamide] |
| < 100 nM | < 100 nM | < 100 nM | < 100 nM | < 100 nM | < 100 nM | Cc1ccc2cc1CNC(=O)C(CCc1ccncc1)NC(=O)[C@@H](NC(=O)Cc1ccc(N)cc1C)CC(=O)N1CCCC(CCO2)C1 (stereo partly drawn) [Compound 678, 2-(4-amino-2-methylphenyl)-N-((12S)-5^4-methyl-8,11,14-trioxo-9-(2-(pyridin-4-yl)ethyl)-4-oxa-7,10-diaza-1(3,1)-piperidina-5(1,3)-benzenacyclotetradecaphane-12-yl)acetamide] |
| < 100 nM | < 100 nM | < 100 nM | < 100 nM | < 100 nM | < 100 nM | Cc1ccc2cc1CNC(=O)[C@H](CCc1ccccc1)NC(=O)[C@@H](NC(=O)CCN1CCC3(CC1)COC3)CC(=O)N1CCCC(CCO2)C1 (stereo partly drawn) [Compound 641, N-((9S,12S)-5^4-methyl-8,11,14-trioxo-9-phenethyl-4-oxa-7,10-diaza-1(3,1)-piperidina-5(1,3)-benzenacyclotetradecaphane-12-yl)-3-(2-oxa-7-azaspiro[3.5]nonan-7-yl)propanamide] |
| < 100 nM | < 100 nM | < 100 nM | < 100 nM | < 100 nM | < 100 nM | Cc1ccc2cc1CNC(=O)[C@H](CCc1ccccc1)NC(=O)[C@@H](NC(=O)CCN1CCC3(CCC3)C1)CC(=O)N1CCCC(CCO2)C1 (stereo partly drawn) [Compound 639, N-((9S,12S)-5^4-methyl-8,11,14-trioxo-9-phenethyl-4-oxa-7,10-diaza-1(3,1)-piperidina-5(1,3)-benzenacyclotetradecaphane-12-yl)-3-(6-azaspiro[3.4]octan-6-yl)propanamide] |
| < 100 nM | < 100 nM | < 100 nM | < 100 nM | < 100 nM | < 100 nM | Cc1ccc2cc1CNC(=O)[C@H](CCc1ccccc1)NC(=O)[C@@H](NC(=O)CCOc1ccccc1)CC(=O)N1CCCC(CCO2)C1 (stereo partly drawn) [Compound 591, N-((9S,12S)-5^4-methyl-8,11,14-trioxo-9-phenethyl-4-oxa-7,10-diaza-1(3,1)-piperidina-5(1,3)-benzenacyclotetradecaphane-12-yl)-3-phenoxypropanamide] |
| < 100 nM | < 100 nM | < 100 nM | < 100 nM | < 100 nM | < 100 nM | Cc1ccc2cc1CNC(=O)[C@H](CCc1ccncc1)NC(=O)[C@@H](NC(=O)Cc1ccc(N)cc1C)CC(=O)N1CCCC(CCO2)C1 (stereo partly drawn) [Compound 654, 2-(4-amino-2-methylphenyl)-N-((9S,12S)-5^4-methyl-8,11,14-trioxo-9-(2-(pyridin-4-yl)ethyl)-4-oxa-7,10-diaza-1(3,1)-piperidina-5(1,3)-benzenacyclotetradecaphane-12-yl)acetamide] |
| < 100 nM | < 100 nM | < 100 nM | 500 to 1000 nM | 100 to 500 nM | 100 to 500 nM | Cc1ccc2cc1CNC(=O)[C@H](CCc1ccccc1)NC(=O)[C@@H](NC(=O)[C@@H](N)CCC(=O)O)CC(=O)N1CCCC(CCO2)C1 (stereo partly drawn) [Compound 724, (4S)-4-amino-5-(((9S,12S)-5^4-methyl-8,11,14-trioxo-9-phenethyl-4-oxa-7,10-diaza-1(3,1)-piperidina-5(1,3)-benzenacyclotetradecaphane-12-yl)amino)-5-oxopentanoic acid] |
